Source: patent publication US10285966B2, “10-hydroxy-cis-12-octadecenoic acid alkyl ester and use thereof” (NITTO PHARMACEUTICAL INDUSTRIES, LTD., priority 2015, dated 2019)

Experiment: State (liquid or solid) at ambient temperature by visual observation
Assay type: physicochemical
Details: for State at standard temperature: Table 1; for liquid or solid at ambient temperature: ambient temperature (about 15-25° C.), visual observation
Experimental: The compounds (1)-(3) of the present invention are desirably liquid at ambient temperature. In the present specification, the ambient temperature refers to the ambient temperature (15° C.-25° C.) defined in the Japanese Pharmacopoeia, 16th edition, General Rules, the Japanese Pharmacopoeia, 17th edition, General Rules. In addition, “about” here means ±1° C.
Whether the compounds of Examples 1 and 2 and HYA of Comparative Example are liquid or solid at ambient temperature (about 15-25° C.) was confirmed by visual observation.

Structure (SMILES)	State at standard temperature	liquid or solid at ambient temperature
CCCCC/C=C\CC(O)CCCCCCCCC(=O)O (stereo not drawn) [HYA, 10-hydroxy-cis-12-octadecenoic acid]	solid	solid
CCCCC/C=C\CC(O)CCCCCCCCC(=O)OCC (stereo not drawn) [Example 1, ethyl 10-hydroxy-cis-12-octadecenoate]	liquid	liquid
CCCCC/C=C\CC(O)CCCCCCCCC(=O)OCCC (stereo not drawn) [Example 2, propyl 10-hydroxy-cis-12-octadecenoate]		liquid
